Reference: patent US20240117431A1, “STEM-CELL BASED BIOMARKER DISCOVERY” (THE REGENTS OF THE UNIVERSITY OF CALIFORNIA, priority 2020, published 2024)

Test system: mutant TgUPRT (triple mutants 3×MT, M166A/A168G/Y228A and M166A/A168G/Y228G) in HEK293 cells
Test: In-cell RNA incorporation by mutant TgUPRT, streptavidin dot blot
Type: cell-based, Toxoplasma gondii
Procedure: Transfection, labeling of cellular RNA and RNA isolation: After 48h seeding, HEK293 cells were transfected with 2.5 μg of TgUPRT WT or mutant plasmids (pKN-CMV-TgUPRT-WT or -Mutt to Mut17) per 5 cm plate using JetPrime Transfection reagent (Polyplus Transfection, France). At 40h post-transfection, cells were incubated with a final concentration of 200 μM at <1% DMSO from 400 mM stock of uracil analogs (5EU, 5VU, 5AU) or 200 mM SAMU stock for 5 h. For time course study, HEK cells were treated with 200 μM uracil analogs for 0 h, 0.5, 1, 3, 5, 12 and 24 hours. For titrating uracil analog concentration experiments, HEK cells were treated with 0 (DMSO), 50, 100, 200, 500 μM or 1 mM uracil analog for 5h. Treated HEK cells were subjected to total RNA extraction using 1 mL Trizol Reagent (Invitrogen) following the manufacturer instructions.
Biotinylation via CuAAC and IEDDA: Cu-mediated Azide-Alkyne cycloaddition (CuAAC) click reactions were performed in 50 μL reaction at 22° C. on a shaker for 30 min with click reaction cocktail containing 15 μg of total RNA, 1 mM biotin alkyne or biotin azide, fresh 4.6 mM THPTA to a final concentration of 1 mM, and fresh 10.6 mM sodium ascorbate (NaAsc) at final concentration of 1.77 mM, and 12 mM CuSO4 at final concentration of 200 μM in biotinylation reaction buffer (10 mM TrisHCI, 1 mM EDTA, pH7.4). The biotinylated RNA was purified using RNA clean & Concentrator-5 kit (Zymo Research, Cat #R1013) according to the manufacturer instructions and eluted in 21 μL of nuclease free water.
Inverse electron demand [4+2] Diels-Alder cycloaddition (IEDDA) click reactions were performed in 50 μL at 37° C. or 22° C. (RT) for 3h on mixer at 500 rpm containing 10-15 μg of total RNA, 1 mM final concentration of biotin-benzyl tetrazine (Sigma Aldrich, Cat #793329-5MG) in nuclease free water. Clicked total RNA was purified using RNA clean & Concentrator-5 kit (Zymo Research, Cat #R1013) according to the manufacturer instructions, and RNA was eluted in 21 μL of nuclease free water.
HRP-streptavidin dot blot analysis: All gel reagents were from Bio-Rad. […]

**Q.** With `C=Cc1c[nH]c(=O)[nH]c1=O` [compound 2, 5-Vinylpyrimidine-2,4(1H,3H)-dione] as the compound, how does the “analog incorporation over time with mutant TgUPRT enzymes” value (200 μM time course to 24 h, in comparison to wild-type) read?
**A.** The value was “much more robust over time”.

**Q.** And the “time at which analog incorporation was observed” value (200 μM time course, dot blot, FIG. 9B)?
**A.** Its value is 0.5 hr.

**Q.** What about the “incorporation into RNA by triple mutants (3×MT)” value (200 μM, 5 hours, HEK293T) of the same compound?
**A.** The value was “robust incorporation”.
